Source: ChEMBL document CHEMBL4387733, “Design, synthesis and biological evaluation of indane derived GPR40 agoPAMs” (Bioorg Med Chem Lett, 2019)
≈ marks a conversion by molar mass, not a printed value. Calls of active or inactive are those of the source. The rule behind the calls is not given here.

Key:
[1] = molecular target: Prostaglandin E2 receptor EP1 subtype (Homo sapiens) (UniProt P34995); experiment: Inhibition of human prostanoid EP1 receptor at 10 uM relative to control
[2] = Solubility of the compound in FASSIF; type: physicochemical
[3] = molecular target: Alpha-2A adrenergic receptor (Homo sapiens) (UniProt P08913); experiment: Inhibition of human adrenergic alpha2A receptor at 10 uM relative to control
Sequence of Alpha-2A adrenergic receptor (Homo sapiens) (P08913 whole entry): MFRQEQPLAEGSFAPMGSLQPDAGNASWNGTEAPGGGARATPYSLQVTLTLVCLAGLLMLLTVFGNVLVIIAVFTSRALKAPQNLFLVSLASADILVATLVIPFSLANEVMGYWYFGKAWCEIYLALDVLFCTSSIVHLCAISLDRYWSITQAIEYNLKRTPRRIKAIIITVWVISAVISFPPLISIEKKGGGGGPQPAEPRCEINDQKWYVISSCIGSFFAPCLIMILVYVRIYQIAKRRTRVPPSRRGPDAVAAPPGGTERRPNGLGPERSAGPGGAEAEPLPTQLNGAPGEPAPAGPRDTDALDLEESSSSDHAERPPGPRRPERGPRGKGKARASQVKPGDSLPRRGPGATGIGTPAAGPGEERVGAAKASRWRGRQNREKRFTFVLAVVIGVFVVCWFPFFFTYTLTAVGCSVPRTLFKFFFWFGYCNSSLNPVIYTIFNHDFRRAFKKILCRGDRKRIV

[4] = molecular target: GABA-A receptor; anion channel (Rattus norvegicus) (UniProt O09028+P15431+P18506+P18508+P19969+P20236+P23574+P23576+P28471+P28473+P30191+P62813+P63079+P63138+Q91ZM7+Q9ES14); experiment: Inhibition of rat GABAA receptor at 10 uM relative to control; type: protein-complex assay
[5] = molecular target: Alpha-2C adrenergic receptor (Homo sapiens) (UniProt P18825); experiment: Inhibition of human adrenergic alpha2C receptor at 10 uM relative to control
Caspase-8 (Homo sapiens) = Caspase-8 (Homo sapiens) (UniProt Q14790); experiment: Inhibition of human full-length recombinant caspase 8 expressed in Escherichia coli at 10 uM using Ac-IETD-AMC as substrate preincubated for 15 mins followed by substrate addition and measured after 60 mins by spectrofluorimetric analysis relative to control
Sequence of Caspase-8 (Homo sapiens) (Q14790 217-374 limits assumed): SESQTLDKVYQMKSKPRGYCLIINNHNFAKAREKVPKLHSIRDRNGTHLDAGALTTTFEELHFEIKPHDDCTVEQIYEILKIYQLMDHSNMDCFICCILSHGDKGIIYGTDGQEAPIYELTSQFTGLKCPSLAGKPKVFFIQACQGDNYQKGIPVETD
Sequence of Caspase-8 (Homo sapiens) (Q14790 385-479 limits assumed): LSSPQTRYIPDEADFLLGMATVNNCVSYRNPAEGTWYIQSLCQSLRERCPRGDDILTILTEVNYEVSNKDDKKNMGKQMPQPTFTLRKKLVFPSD

Caspase-9 (Homo sapiens) = Caspase-9 (Homo sapiens) (UniProt P55211); experiment: Inhibition of human full-length recombinant caspase 9 expressed in Escherichia coli at 10 uM using Ac-LEHD-AFC as substrate preincubated for 15 mins followed by substrate addition and measured after 60 mins by spectrofluorimetric analysis relative to control
[6] = molecular target: Cysteinyl leukotriene receptor 2 (Homo sapiens) (UniProt Q9NS75); experiment: Displacement of [3H]LTD4 from human full-length recombinant cysteinyl leukotriene type-2 receptor expressed in HEK293 cells at 10 uM measured after 60 mins by scintillation counting method relative to control; type: cell-based
[7] = molecular target: 5-hydroxytryptamine receptor 2B (Homo sapiens) (UniProt P41595); experiment: Inhibition of human 5-HT2B receptor at 10 uM relative to control
[8] = molecular target: Cathepsin G (Homo sapiens) (UniProt P08311); experiment: Inhibition of human neutrophil cathepsin G at 10 uM using Suc-Ala-Ala-Pro-Phe-AMC as substrate preincubated for 15 mins followed by substrate addition and measured after 30 mins by spectrofluorimetric analysis relative to control
[9] = molecular target: 5-hydroxytryptamine receptor 2C (Homo sapiens) (UniProt P28335); experiment: Inhibition of human 5-HT2C receptor at 10 uM relative to control
[10] = molecular target: Acetylcholinesterase (Homo sapiens) (UniProt P22303); experiment: Inhibition of human recombinant full length acetylcholine esterase expressed in HEK293 cells at 10 uM using acetylcholine as substrate preincubated for 15 mins followed by substrate addition measured after 20 mins by spectrophotometric analysis
[11] = molecular target: Muscarinic acetylcholine receptor M3 (Homo sapiens) (UniProt P20309); experiment: Inhibition of human muscarinic M3 receptor at 10 uM relative to control
Sequence of Muscarinic acetylcholine receptor M3 (Homo sapiens) (P20309 whole entry, looked up): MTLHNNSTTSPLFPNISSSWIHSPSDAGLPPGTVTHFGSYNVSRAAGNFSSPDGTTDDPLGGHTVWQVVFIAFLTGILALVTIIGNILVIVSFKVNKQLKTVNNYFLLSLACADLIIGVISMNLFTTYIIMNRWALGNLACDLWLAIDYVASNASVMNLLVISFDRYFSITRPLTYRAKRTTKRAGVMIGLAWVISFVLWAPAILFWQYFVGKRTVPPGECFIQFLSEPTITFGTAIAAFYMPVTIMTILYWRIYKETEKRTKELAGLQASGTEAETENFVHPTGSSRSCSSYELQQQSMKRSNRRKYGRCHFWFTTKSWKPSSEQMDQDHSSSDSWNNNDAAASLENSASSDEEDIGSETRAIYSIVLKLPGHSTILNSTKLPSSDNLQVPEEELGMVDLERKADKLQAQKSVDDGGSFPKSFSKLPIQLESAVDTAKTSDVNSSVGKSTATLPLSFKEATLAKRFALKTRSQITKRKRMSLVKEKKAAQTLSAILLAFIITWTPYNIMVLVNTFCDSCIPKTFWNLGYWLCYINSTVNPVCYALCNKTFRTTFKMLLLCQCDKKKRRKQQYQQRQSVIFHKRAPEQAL

[12] = molecular target: Mu-type opioid receptor (Homo sapiens) (UniProt P35372); experiment: Inhibition of human mu type opioid receptor at 10 uM relative to control
Sequence of Mu-type opioid receptor (Homo sapiens) (P35372 whole entry): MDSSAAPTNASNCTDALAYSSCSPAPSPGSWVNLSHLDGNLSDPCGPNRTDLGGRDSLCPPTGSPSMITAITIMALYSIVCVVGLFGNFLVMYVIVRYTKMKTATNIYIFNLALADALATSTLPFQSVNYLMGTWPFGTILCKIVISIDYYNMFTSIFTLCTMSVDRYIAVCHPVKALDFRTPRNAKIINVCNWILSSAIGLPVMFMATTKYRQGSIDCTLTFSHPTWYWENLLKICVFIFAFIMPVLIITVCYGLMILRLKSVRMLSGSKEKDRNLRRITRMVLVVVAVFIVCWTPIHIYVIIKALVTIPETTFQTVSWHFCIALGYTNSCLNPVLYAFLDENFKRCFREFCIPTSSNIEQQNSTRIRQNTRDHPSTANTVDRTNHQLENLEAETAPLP

[13] = molecular target: Histamine H2 receptor (Homo sapiens) (UniProt P25021); experiment: Inhibition of human histamine H2 receptor at 10 uM relative to control
Sequence of Histamine H2 receptor (Homo sapiens) (P25021 whole entry): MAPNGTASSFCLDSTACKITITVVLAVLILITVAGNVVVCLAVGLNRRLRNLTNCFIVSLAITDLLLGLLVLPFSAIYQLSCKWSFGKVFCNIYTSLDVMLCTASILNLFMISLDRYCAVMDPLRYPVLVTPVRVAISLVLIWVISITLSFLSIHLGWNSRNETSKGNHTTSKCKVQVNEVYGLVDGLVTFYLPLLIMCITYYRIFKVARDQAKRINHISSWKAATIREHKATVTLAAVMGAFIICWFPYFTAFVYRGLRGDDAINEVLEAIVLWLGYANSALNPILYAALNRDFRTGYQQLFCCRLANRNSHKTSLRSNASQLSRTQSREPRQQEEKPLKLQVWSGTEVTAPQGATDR

[14] = molecular target: Histamine H1 receptor (Homo sapiens) (UniProt P35367); experiment: Inhibition of human histamine H1 receptor at 10 uM relative to control
Sequence of Histamine H1 receptor (Homo sapiens) (P35367 whole entry): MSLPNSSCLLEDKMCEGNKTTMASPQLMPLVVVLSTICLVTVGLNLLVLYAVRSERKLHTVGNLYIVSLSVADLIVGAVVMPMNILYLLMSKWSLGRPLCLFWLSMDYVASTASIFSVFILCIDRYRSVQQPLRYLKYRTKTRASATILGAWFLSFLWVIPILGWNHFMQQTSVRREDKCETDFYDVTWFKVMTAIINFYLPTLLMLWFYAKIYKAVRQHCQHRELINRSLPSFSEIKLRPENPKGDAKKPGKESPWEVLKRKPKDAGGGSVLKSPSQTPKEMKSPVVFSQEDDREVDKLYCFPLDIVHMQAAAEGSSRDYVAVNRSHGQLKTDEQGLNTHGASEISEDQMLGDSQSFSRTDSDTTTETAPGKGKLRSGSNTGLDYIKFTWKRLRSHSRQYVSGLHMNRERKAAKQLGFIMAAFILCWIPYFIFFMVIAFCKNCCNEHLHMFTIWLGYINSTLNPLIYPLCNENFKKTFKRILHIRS

[15] = molecular target: Prostaglandin E2 receptor EP3 subtype (Homo sapiens) (UniProt P43115); experiment: Inhibition of human prostanoid EP3 receptor at 10 uM relative to control
Mus musculus = species on record: Mus musculus; experiment: Glucose lowering effect in GPR40 knockout mouse assessed as increase in GLP-1 level; type: functional, organism-based
[16] = molecular target: Prostaglandin G/H synthase 1 (Homo sapiens) (UniProt P23219); experiment: Inhibition of human recombinant cyclooxygenase COX1 expressed in baculovirus infected Sf9 cells at 10 uM using arachidonic acid as substrate preincubated for 15 mins followed by substrate addition and measured after 3 mins by ampliflu red reagent-based spectrofluorimetric method relative to control
Sequence of Prostaglandin G/H synthase 1 (Homo sapiens) (P23219 whole entry): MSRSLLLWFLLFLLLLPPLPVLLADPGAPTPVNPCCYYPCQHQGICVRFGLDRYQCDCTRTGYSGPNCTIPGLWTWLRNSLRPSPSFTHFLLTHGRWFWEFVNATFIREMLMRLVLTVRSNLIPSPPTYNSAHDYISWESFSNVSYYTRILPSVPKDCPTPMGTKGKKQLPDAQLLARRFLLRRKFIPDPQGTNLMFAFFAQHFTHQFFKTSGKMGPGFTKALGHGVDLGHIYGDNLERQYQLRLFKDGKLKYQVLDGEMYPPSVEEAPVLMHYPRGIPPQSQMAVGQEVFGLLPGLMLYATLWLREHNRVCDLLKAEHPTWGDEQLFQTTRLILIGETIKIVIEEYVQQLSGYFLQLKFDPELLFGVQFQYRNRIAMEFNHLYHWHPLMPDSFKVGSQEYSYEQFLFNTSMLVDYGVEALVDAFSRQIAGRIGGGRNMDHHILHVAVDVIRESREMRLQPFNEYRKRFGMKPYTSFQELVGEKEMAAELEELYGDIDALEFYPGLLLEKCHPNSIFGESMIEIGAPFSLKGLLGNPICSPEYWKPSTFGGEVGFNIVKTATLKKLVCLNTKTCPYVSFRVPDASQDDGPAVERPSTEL

[17] = molecular target: D(1A) dopamine receptor (Homo sapiens) (UniProt P21728); experiment: Inhibition of human dopamine D1 receptor at 10 uM relative to control
[18] = molecular target: Histamine H4 receptor (Homo sapiens) (UniProt Q9H3N8); experiment: Inhibition of human histamine H4 receptor at 10 uM relative to control
Rattus norvegicus [19] = species on record: Rattus norvegicus; experiment: Inhibition of rat P2Y receptor at 10 uM relative to control
[20] = molecular target: Sodium-dependent dopamine transporter (Homo sapiens) (UniProt Q01959); experiment: Inhibition of human sodium dependent dopamine transporter at 10 uM relative to control
Sequence of Sodium-dependent dopamine transporter (Homo sapiens) (Q01959 whole entry): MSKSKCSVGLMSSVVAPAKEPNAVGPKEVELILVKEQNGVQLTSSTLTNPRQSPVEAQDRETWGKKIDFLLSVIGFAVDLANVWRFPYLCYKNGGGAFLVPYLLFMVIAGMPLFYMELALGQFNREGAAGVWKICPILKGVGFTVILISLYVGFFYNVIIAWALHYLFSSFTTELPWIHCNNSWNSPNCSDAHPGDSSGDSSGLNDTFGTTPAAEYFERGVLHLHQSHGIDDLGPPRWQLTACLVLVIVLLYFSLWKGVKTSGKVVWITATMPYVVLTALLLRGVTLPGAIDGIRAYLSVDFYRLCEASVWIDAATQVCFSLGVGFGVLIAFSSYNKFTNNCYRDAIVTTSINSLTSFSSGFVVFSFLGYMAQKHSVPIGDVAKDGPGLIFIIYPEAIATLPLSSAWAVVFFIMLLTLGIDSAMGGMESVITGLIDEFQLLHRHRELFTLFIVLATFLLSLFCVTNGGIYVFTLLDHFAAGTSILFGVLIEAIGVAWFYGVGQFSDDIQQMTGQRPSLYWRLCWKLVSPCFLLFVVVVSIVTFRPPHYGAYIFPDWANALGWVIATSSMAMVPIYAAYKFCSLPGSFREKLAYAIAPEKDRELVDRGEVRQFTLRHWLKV

[21] = molecular target: MAP/microtubule affinity-regulating kinase 3 (Homo sapiens) (UniProt P27448); experiment: Inhibition of human full-length recombinant MARK3 expressed in insect cells at 10 uM using CHKtide as substrate preincubated for 15 mins followed by substrate addition and measured after 30 mins in presence of [gamma32P]ATP by scintillation counting analysis relative to control
[22] = molecular target: D(2) dopamine receptor (Homo sapiens) (UniProt P14416); experiment: Inhibition of human dopamine D2s receptor at 10 uM relative to control
[23] = molecular target: Mitogen-activated protein kinase 3 (Homo sapiens) (UniProt P27361); experiment: Inhibition of human recombinant full-length ERK1 expressed in Escherichia coli at 10 uM using myelin basic protein as substrate preincubated for 30 mins followed by substrate addition and measured after 30 mins in the presence of [gamma32P]ATP by scintillation counting method relative to control
Rattus norvegicus [24] = experiment: Hypoglycemic activity in Sprague-Dawley rat assessed as reduction in blood glucose AUC at 0.3 mg/kg, po pretreated for 1 hr followed by glucose challenge by OGTT relative to control; type: functional
[25] = molecular target: Sodium-dependent serotonin transporter (Homo sapiens) (UniProt P31645); experiment: Inhibition of human SERT at 10 uM relative to control
[26] = molecular target: 5-hydroxytryptamine receptor 2A (Homo sapiens) (UniProt P28223); experiment: Inhibition of human 5-HT2A receptor at 10 uM relative to control
[27] = molecular target: Kappa-type opioid receptor (Homo sapiens) (UniProt P41145); experiment: Inhibition of human kappa type opioid receptor at 10 uM relative to control
Sequence of Kappa-type opioid receptor (Homo sapiens) (P41145 whole entry): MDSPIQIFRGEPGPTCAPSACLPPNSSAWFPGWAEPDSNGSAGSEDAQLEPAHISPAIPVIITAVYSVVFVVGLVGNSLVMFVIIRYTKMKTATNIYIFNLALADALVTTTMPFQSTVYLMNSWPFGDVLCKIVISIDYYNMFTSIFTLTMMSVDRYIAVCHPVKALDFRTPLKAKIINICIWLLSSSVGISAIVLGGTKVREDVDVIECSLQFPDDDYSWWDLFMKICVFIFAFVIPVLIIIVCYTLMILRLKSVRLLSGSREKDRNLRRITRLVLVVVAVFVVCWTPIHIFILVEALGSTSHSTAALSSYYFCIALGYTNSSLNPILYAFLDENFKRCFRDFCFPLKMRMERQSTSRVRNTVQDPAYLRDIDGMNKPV

[28] = molecular target: Prostaglandin G/H synthase 2 (Homo sapiens) (UniProt P35354); experiment: Inhibition of human recombinant cyclooxygenase COX2 expressed in baculovirus infected Sf9 cells at 10 uM using arachidonic acid as substrate preincubated for 15 mins followed by substrate addition and measured after 3 mins by ampliflu red reagent-based spectrofluorimetric method relative to control
[29] = molecular target: Free fatty acid receptor 1 (Homo sapiens, UniProt O14842); experiment: Positive allosteric modulation of recombinant human GPR40 expressed in HEK293 cells assessed as increase in [3H]-myo-inositol phosphate accumulation measured after 60 mins in presence of 100% human serum by microbeta counting method; type: functional, cell-based
[30] = molecular target: 5-hydroxytryptamine receptor 1A (Homo sapiens) (UniProt P08908); experiment: Inhibition of human 5HT1A receptor at 10 uM relative to control
[31] = molecular target: Sodium-dependent noradrenaline transporter (Homo sapiens) (UniProt P23975); experiment: Inhibition of human sodium dependent noradrenaline transporter at 10 uM relative to control
Sequence of Sodium-dependent noradrenaline transporter (Homo sapiens) (P23975 whole entry): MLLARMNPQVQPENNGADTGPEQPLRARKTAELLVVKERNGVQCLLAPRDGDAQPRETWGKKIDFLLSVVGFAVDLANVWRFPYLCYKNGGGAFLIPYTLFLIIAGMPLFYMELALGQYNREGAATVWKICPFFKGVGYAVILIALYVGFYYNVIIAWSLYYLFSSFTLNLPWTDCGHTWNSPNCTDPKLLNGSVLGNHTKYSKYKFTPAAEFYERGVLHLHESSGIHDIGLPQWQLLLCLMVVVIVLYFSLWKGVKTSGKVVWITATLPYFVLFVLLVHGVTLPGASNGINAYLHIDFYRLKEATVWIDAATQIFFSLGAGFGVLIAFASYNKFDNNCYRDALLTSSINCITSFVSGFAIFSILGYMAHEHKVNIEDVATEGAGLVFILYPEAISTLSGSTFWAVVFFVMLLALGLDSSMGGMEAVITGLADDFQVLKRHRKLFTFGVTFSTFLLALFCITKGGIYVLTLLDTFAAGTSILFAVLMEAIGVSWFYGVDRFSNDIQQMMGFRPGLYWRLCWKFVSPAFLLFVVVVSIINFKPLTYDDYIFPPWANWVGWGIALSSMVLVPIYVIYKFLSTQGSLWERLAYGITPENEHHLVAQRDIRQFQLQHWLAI

[32] = molecular target: B1 bradykinin receptor (Homo sapiens) (UniProt P46663); experiment: Displacement of [3H]Kallidin(des-Arg10,Leu9) from human recombinant bradykinin B1 receptor expressed in CHOK1 cells at 10 uM after 60 mins by scintillation counting assay relative to control; type: cell-based

COc1ccc(F)c(-c2ccc(COc3cccc([C@@H](CC(=O)O)C4CC4)c3)cc2C2=CCCC2(C)C)c1 showed an inhibition [1] of 95%, a solubility [2] of 166 µM (≈ 85.4 µg/mL) and an inhibition [3] of 99%. It also gave an inhibition [4] of 60%, an inhibition [5] of 99% and an inhibition (Caspase-8 (Homo sapiens)) of 65%. It also gave an inhibition (Caspase-9 (Homo sapiens)) of 89%, an inhibition [6] of 61% and an inhibition [7] of 88%. It also gave an inhibition [8] of 53%, an inhibition [9] of 94% and an inhibition [10] of 52%. For the same compound, the inhibition [11] was 60%, the inhibition [12] was 99% and the inhibition [13] was 66%. The inhibition [14] was 97%, the inhibition [15] was 77% and the Activity (Mus musculus) was “Active”. For the same compound, the inhibition [16] was 67%, the inhibition [17] was 78% and the inhibition [18] was 82%. The inhibition (Rattus norvegicus [19]) was 80%, the inhibition [20] was 97% and the inhibition [21] was 81%. The inhibition [22] was 66%, the inhibition [23] was 96% and the Activity (Rattus norvegicus [24]) was “Active”. For the same compound, the inhibition [25] was 70%, the inhibition [26] was 89% and the inhibition [27] was 97%. It also gave an inhibition [28] of 77%, a fEC50 [29] of 0.06 nM and an inhibition [30] of 91%. The inhibition [31] was 95% and the inhibition [32] was 63%.
